Results on four compounds are retold here after patent US11311012B1, “Bacterial control in fermentation systems” (Clean Chemistry, Inc., priority 2017, dated 2022).

Values joined by “and” are separate entries in the source; they are usually repeats but may differ in a detail not shown here. Equal values may be shown once.

The subject of data set [1] is bacteria population in stationary phase. The data set is classed as cell-based.
Data set [2] relates to APB. The data set is classed as cell-based, bacteria.
Data set [3] relates to SRB. Format: cell-based, bacteria.
A short description of data set [4]: ORP of oxidant solutions at pH 7. The data set is classed as physicochemical. The following applies: 29 mM.
The test system of data set [5] is yeast cells. Format: cell-based, Saccharomyes cerevisiae and Schizosaccharomyces pombe.

On to `CCCCCCCCCCCC[N+](C)(C)CCCCCCCCCCCC.[Br-]` [DDAB, didodecyldimethylammonium bromide], for which, in data set [1], the ATP is 185 pg/mL and 291 pg/mL; the “Effectiveness against bacteria in the stationary phase compared with peracetate oxidant” value was “less effective”. Besides, the APB in data set [2] was 3 bottles and 4 bottles. Besides, the SRB in data set [3] was 5 bottles and 6 bottles.
Consider `OCl` [hypochlorous acid], for which, in data set [4], the ORP result is “over 1.1 V (vs SHE)”.
Consider `[O][Cl+][O-]` [Chlorine Dioxide, chlorine dioxide], for which, in data set [5], the “Yeast activity vs untreated mash” value is on record as “greater yeast activity”.
Regarding `OO` [hydrogen peroxide], the ORP entry in data set [4] is on record as “about 0.5 V (vs SHE)”.
